Activity calls are given as the source filed them. No cut-off for these calls is given here.

For assay [1], the target named is T1, Ribonuclease pancreatic (Homo sapiens) (UniProt P07998).
T1 sequence (whole entry): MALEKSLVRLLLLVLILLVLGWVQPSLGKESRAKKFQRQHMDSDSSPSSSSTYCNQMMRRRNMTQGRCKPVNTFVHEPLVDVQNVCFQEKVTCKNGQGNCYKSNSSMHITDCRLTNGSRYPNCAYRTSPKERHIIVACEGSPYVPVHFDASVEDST
The assay can be described thus: Inhibition of RNase A at 1.5 mM by precipitation assay.

In assay [2] the target is T2, Ribonuclease pancreatic (Homo sapiens, UniProt P07998).
T2 sequence (P07998 whole entry): T1 sequence (whole entry)
The assay can be described thus: Inhibition of RNase A using dixon plot by spectrophotometric method.

The target in assay [3] is T1, Ribonuclease pancreatic (Homo sapiens). In words: Inhibition of RNase A assessed as degradation of tRNA by agarose gel assay.

For orientation: Ki means a dissociation constant, usually derived from enzyme kinetics or from competition with a known ligand. Low readings indicate tighter binding, high ones weaker binding. `Cc1cn([C@H]2C[C@H](NC(=O)C(=O)O)[C@@H](CO)O2)c(=O)[nH]c1=O`: in assay [1], the inhibition result is “Active”. The affinity in assay [2] corresponds to a Ki of 132 µM. The outcome in assay [3] was Active. In the case of `Cc1cn([C@H]2C[C@H](NC(=O)CC(=O)O)[C@@H](CO)O2)c(=O)[nH]c1=O`, the Ki in assay [2] was 380 µM. `Cc1cn([C@H]2C[C@H](NC(=O)CCC(=O)O)[C@@H](CO)O2)c(=O)[nH]c1=O`: the Ki in assay [2] was 918 µM. This Ki is about 2.4-fold higher than that of the compound before.
